By IC50 is commonly meant the point on the concentration scale where inhibition reaches its midpoint. Broadly, the melting point is the temperature, or range, at which the solid turns liquid. What is called GI50 is the concentration giving 50% growth inhibition.

The text below walks through data of publication PMC9571264 (Molecules, 2022).

Converted amounts (≈) assume the structure as drawn. Like-named read-outs stand apart in the source and are kept apart here.

Data set [1] has as its system HepG2. Also on record: method as in PMID 24148965, PMID 26890810. The conditions noted are these: ref [41],[43]; read-out: IC50 on HepG2 (apoptotic effect); cited from earlier work.
The test system of the next data set is Breast Cancer MCF-7. Description: MTT cytotoxicity assay, MCF-7. It is filed as cell-based. The conditions noted are these: Homo sapiens, MCF7, 48 h, read-out: IC50 (µM) ± SEM, Breast Cancer MCF-7. Here is the method: (§1) Cytotoxic activities of the synthesized derivatives were screened against leukemia (HL60), liver (HepG2), breast (MCF-7), and lung (A549) cancer cell lines and non-cancerous THLE2 and WISH cells at different concentrations [0.01–100 µM] for 48 h using the MTT assay (Table 1).
(§2) Human promyelocytic leukemia ”HL-60”, human hepatocellular carcinoma “HepG2”, human breast cancer “MCF-7”, human lung cancer “A549” cell lines, and two normal cell lines, THLE-2 as normal adult liver epithelial cells and WISH as normal epithelial cells, were obtained from American Type Culture Collection “Rockville, MD, USA”.
(§3) According to the manufacturer’s protocol, the cells were seeded in 96-well plates at a concentration of 5 × 10^4 cells per well (200 µL). Different concentrations of the tested compounds were used to test the cytotoxicity. […] A non-linear regression of curve fit was used to calculate the IC50.

A further data set has as its system Liver Cancer HepG2. Description: MTT cytotoxicity assay, HepG2. It is filed as cell-based, human. The conditions noted are these: read-out: IC50 (µM) ± SEM, Liver Cancer HepG2. As for the experimental part: as §1, §2, §3
Background: Formazan colour is commonly taken as a measure of viable cells.

A further data set relates to Lung Cancer A549. Description: MTT cytotoxicity assay, A549. It is filed as cell-based. The conditions noted are these: Homo sapiens, 48 h, read-out: IC50 (µM) ± SEM, Lung Cancer A549. Here is the method:
as §1, §2, §3

In another data set the test system is Leukemia Cancer HL60. Description: MTT cytotoxicity assay, HL60. In kind it is cell-based. Particulars: Homo sapiens, HL-60, 48 h, read-out: IC50 (µM) ± SEM, Leukemia Cancer HL60. As for the experimental part:
as §1, §2, §3

The subject of data set [2] is HepG2. The conditions noted are these: ref [37]; cited from earlier work.
Data set [3] relates to non-small-cell lung cancer HOP-92. Also noted: method as in PMID 21439691. Particulars: ref [39]; cited from earlier work.
Another data set has as its system colon cancer HCC-2998. Also noted: method as in PMID 21439691. Particulars: ref [39]; cited from earlier work.
Another data set relates to leukemia CCRF-CEM. Also noted: method as in PMID 21439691. Particulars: ref [39]; cited from earlier work.
The subject of another data set is Normal Liver THLE2. Description: MTT cytotoxicity assay, normal THLE2. It is filed as cell-based. The conditions noted are these: Homo sapiens, THLE-2, 48 h, read-out: IC50 (µM) ± SEM, Normal Liver THLE2. Here is the method:
as §1, §2, §3

The test system of data set [4] is promyelocytic leukemia cell line (HL60). Also noted: method as in PMID 19322800. Particulars: ref [38]; cited from earlier work.

Consider `O=C/C=C/c1ccccc1` [cinnamaldehyde], for which the IC50 with HepG2 [1] was 9.76 ± 0.67 µM.

With `O=C(O)/C=C/c1ccccc1` [Compound 6, cinnamic acid], the IC50 in the data set on Breast Cancer MCF-7 turned out to be 28.6 ± 0.91 µM; in the data set on Liver Cancer HepG2 (Homo sapiens, HepG2, 48 h) it was 36.58 ± 0.19 µM; in the data set on Lung Cancer A549 it was 27.6 ± 1.95 µM; in the data set with Leukemia Cancer HL60, 88.21 ± 0.51 µM.

As for `COc1cccc2c1C(=O)c1c(O)c3c(c(O)c1C2=O)C[C@@](O)(C(=O)CO)C[C@@H]3O[C@H]1C[C@H](N)[C@H](O)[C@H](C)O1` [doxorubicin], in the data set on HepG2 [2], the “IC50 against HepG2” value is reported as 2.11 ± 0.13 µg/mL (≈ 3.88 µM).

On to `C/C(=N\NC(=O)COc1ccc2c(C)cc(=O)oc2c1)c1ccc(Cl)cc1` [III], for which the “IC50 against HepG2” value with HepG2 [2] is 2.84 ± 0.48 µg/mL (≈ 7.38 µM).

Regarding `CC(=O)c1cc2c(C)cc(=O)oc2cc1OCCN1CCOCC1` [VI], in [3], the “GI, non-small-cell lung cancer HOP-92” value is 237.8 µM. For the same compound, the “GI, colon cancer HCC-2998” value in the data set with colon cancer HCC-2998 is 341.4 µM. The “GI, leukemia CCRF-CEM” value with leukemia CCRF-CEM was 627.1 µM.

`Cc1c(Br)c(=O)oc2cc(OC(=O)/C=C/c3ccccc3)ccc12` [Compound 8c, (2E)-3-bromo-4-methyl-2-oxo-2H-chromen-7-yl cinnamate] showed a melting point of 170 °C. In addition, in the data set on Breast Cancer MCF-7, the concentration for half-maximal inhibition (IC50) is 67.3 ± 2.03 µM. Moreover, the 50% inhibitory concentration (IC50) with Liver Cancer HepG2 (Homo sapiens, HepG2, 48 h) was found to be 17.4 ± 0.19 µM. For the same compound, in the data set with Lung Cancer A549, the IC50 came out at 24.3 ± 0.37 µM. Besides, the concentration for half-maximal inhibition (IC50) in the data set with Normal Liver THLE2 amounted to 124 ± 2.12 µM. Besides, the IC50 with Leukemia Cancer HL60 is 48.1 ± 0.88 µM.

Consider `CN[C@@H]1C[C@H]2O[C@@](C)([C@@H]1OC)n1c3ccccc3c3c4c(c5c6ccccc6n2c5c31)C(=O)NC4` [Staurosporine, reference compound], for which the 50% inhibitory concentration (IC50) amounted to 3.06 ± 0.42 µM in the data set with Breast Cancer MCF-7 and 3.7 ± 0.09 µM in the data set on Lung Cancer A549.

For the compound `Cc1cc(=O)oc2cc(OC(C)/C=C/C3=CC(=O)C(C)(C)O3)ccc12` (centres unmarked) [V], the 50% growth inhibitory concentration (GI50) in [4] is 0.5 ± 0.02 µM.

For the compound `Cc1cc(=O)oc2cc(OCC(=O)N/N=C/c3ccc(Br)cc3)ccc12` [IV], in the data set with HepG2 [2], the “IC50 against HepG2” value is 4.67 ± 0.78 µg/mL (≈ 11.2 µM).

As to `Cc1cc(=O)oc2cc(OC(=O)/C=C/c3ccccc3)ccc12` [Compound 8a, (2E)-4-Methyl-2-oxo-2H-chromen-7-yl Cinnamate], the melting point came out at 96 °C. For the same compound, the concentration for half-maximal inhibition (IC50) in the data set on Breast Cancer MCF-7 amounted to 39.3 ± 1.69 µM. For the same compound, the 50% inhibitory concentration (IC50) in the data set on Liver Cancer HepG2 (48 h) was 75.2 ± 1.39 µM. The half-inhibitory concentration (IC50) with Lung Cancer A549 came out at 19.6 ± 0.89 µM. Besides, the IC50 in the data set on Leukemia Cancer HL60 came to 34.8 ± 0.64 µM.

For `Cc1cc(=O)oc2cc(O)ccc12` [Compound 3, 7-Hydroxy-4-methylcoumarin], the IC50 with Breast Cancer MCF-7 stood at 29.3 ± 1.02 µM; with Liver Cancer HepG2 (Homo sapiens, HepG2, 48 h) it was 95.7 ± 1.13 µM; with Lung Cancer A549, 16.5 ± 1.98 µM; in the data set on Leukemia Cancer HL60, 42.55 ± 0.22 µM.
